# Tests used:
# [1] = test system: orientation hypermotility; experiment: Sedative action (orientation hypermotility); assay type: in vivo, female NMRI mice; conditions: mice, oral; clozapine = 1.0
# Experimental: 4-8 groups each of 3 female NMRI mice are given the compound orally. The orientation hypermotility induced by a new environment is determined photoelectrically, for a period of 30 minutes, starting 30 minutes after administration of the substances.
# [2] = test system: tonic extension reflex in the gastrocnemius; experiment: Muscle-relaxing action (tonic extension reflex); assay type: in vivo, rabbits; conditions: rabbit, intravenous; for Muscle relaxation R.E.: clozapine = 1.0
# Experimental: 2. […] The rabbit is kept in a special apparatus which allows it to flex its paw at the talocalcanean joint in a defined and reproducible manner. The flexing triggers off a tonic extension reflex in the calf muscles. The electrical activity of the muscle during the contraction is recorded, and the individual pulses are counted. The extension (lasting 5 seconds) is repeated at intervals of one minute. […] The numbers of pulses following the administration are compared with the initial values.
# [3] = test system: methamphetamine-induced sniffing movements; experiment: Antimethamphetamine action (methamphetamine antagonism); assay type: in vivo; conditions: rats, intraperitoneal; clozapine = 1.0
# Experimental: 3. Antimethamphetamine action
# Methamphetamine.HCl (2.5 mg/kg administered intravenously) regularly causes the following symptoms in rats: motor restlessness, searching and sniffing movements, fur standing on end, and tremor (Janssen et al., Arzneim.-Forsch./Drug Res. 13 (1963), 205; and Randrup et al., Psychopharmacologia 11 (1967), 300). The test substances are administered intraperitoneally 30 minutes before methamphetamine. The substance is considered to have an effect if no sniffing movements are observed for a period of 5 minutes after the injection of methamphetamine. The mean inhibition dose (ED50%) is determined, by means of probit analysis, as the dose which prevents the occurrence of the symptom in half the animals.
# [4] = test system: pilocarpine-induced scratching movements; experiment: Anticholinergic action on the central nervous system (pilocarpine); assay type: in vivo; conditions: rats, intraperitoneal; clozapine = 1.0
# Experimental: 4. Anticholinergic action on the central nervous system
# To test the anticholinergic action on the central nervous system, cholinergic stimulation is triggered off by pilocarpine. After rapid intravenous injection of pilocarpine.HCl (50 mg/kg) rats display alternating scratching movements of their rear paws; further symptoms triggered off in the central nervous system are jaw movements and tremors. […] The test substances are administered intraperitoneally 30 minutes before pilocarpine. The substance is considered to have an effect if no scratching is observed for a period of 2 minutes after the injection of pilocarpine. For this symptom, the mean inhibition dose (ED50%) is determined, by means of probit analysis by the method of Finney, as the dose of the test substance which suppresses the scratching in half the animals.
Structure (SMILES),Sedation R.E. [1],Muscle relaxation R.E. [2],Methamphetamine antagonism R.E. [3],Anticholinergic action on the central nervous system R.E. [4],"ED50 ([2]; Oryctolagus cuniculus, pulses compared with initial values, read-out: Muscle relaxation ED 50%) [mg/kg]"
"CN1CCN(C2=Nc3c(csc3Cl)C(=CC#N)c3cscc32)CC1 (mixture of isomers) [Example 2, Cis/trans-3-chloro-9-cyanomethylene-5-(4-methylpiperazin-1-yl)-dithieno[3,4-b:4',3'-e]azepine]",0.49,0.56,,,
"CCN1CCN(C2=Nc3cscc3C(=CC#N)c3cscc32)CC1 (mixture of isomers) [Example 6, Cis/trans-9-cyanomethylene-5-(4-ethyl-piperazin-1-yl)dithieno[3,4-b:4',3'-e]azepine]",0.44,0.21,0.88,,
CN1CCN(C2=Nc3cc(Cl)ccc3Nc3ccccc32)CC1 [Clozapine],1.0,1.0,1.0,1.0,0.046
"CN1CCN(C2=Nc3cscc3C(=CC#N)c3cscc32)CC1 [Example 1a, 9-cyanomethylene-5-(4-methyl-piperazin-1-yl)-dithieno[3,4-b:4',3'-e]azepine]",0.64,0.33,,1.1,
CN1CCN(C2=Nc3ccccc3Cc3ccccc32)CC1 [Perlapine],,0.42,1.2,0.22,
